Test results from patent US6043245A, “Tetrahydrofuran antifungal phosphate” (Schering Corporation, priority 1998, dated 2000).
Like-named read-outs stand apart in the source and are kept apart here.

Experiments:
[1] = Plasma pharmacokinetics of formula IV in mice after intravenous di-NMG salt; type: in vivo, mouse (male Charles River); design: AUC (of formula IV), time zero to 24 hrs: unit not given here; conditions: for AUC (of formula IV), time zero to 24 hrs: Table 3, mouse plasma, IV 20 mg/kg formula IV equivalent of di-NMG salt
Experimental: Concentrations of the compound of formula IV in pooled mouse^1
plasma (2 mice/pool) following intravenous administration of a 20
mg/kg of the compound of formula IV dose equivalent of the di-NMG
salt of the compound of this invention represented by the formula II in
^1 Male Charles River mice having an average body weight of 18-20 g
mg/kg of compound of formula IV dose equivalent of the di-NMG
salt of the compound of the prior art represented by formula V
PHARMACOKINETIC ("PK") PARAMETERS OF THE
COMPOUND OF FORMULA IV IN MOUSE^1 PLASMA
FOLLOWING INTRAVENOUS ADMINISTRATION OF 20 MG/KG
OF COMPOUND OF FORMULA IV DOSE EQUIVALENT OF THE
DI-NMG SALTS OF THE COMPOUNDS OF FORMULAS II AND V
IN STERILE WATER TO MICE.

Aspergillus species = experiment: In vitro antifungal activity against Aspergillus species; type: cell-based; conditions: Aspergillus species (n = 30); Espinel-Ingroff's methodology
Experimental: (§1) The in vitro anti-fungal activities of the compounds of the formulas II, III and IV against forty-one species of Candida, thirty species of Aspergillus and nine species of Cryptococcus are summarized in Table 5. […] This Aspergillus pulmonary infection model in mice was performed in accordance with the procedures of David Loebenberg et al. entitled "In vitro and in vivo activity of Sch 42427, the active enantiomer of the antifungal agent Sch 39304" published in Antimicrobial Agents and Chemotherapy (1992), Vol. 36, pp. 498-501.
(§2) In Vitro Antifungal Activity(mcg/mL)
^2 In vitro activity against Aspergillus measured in accordance with
EspinelIngroff's Methodology

Candida species = experiment: In vitro antifungal activity against Candida species; type: cell-based
Experimental: as §1, §2
(§3) ^3 In vitro activity measured in accordance with procedures for NCCLS

Cryptococcus neoformans = experiment: In vitro antifungal activity against Cryptococcus neoformans; type: cell-based
Experimental: as §1, §2, §3

[2] = In vivo hydrolysis of prodrug; conditions: II to III; III to IV
Source text: The compound of formula II hydrolyzes in vivo to the compound of formula III; III then hydrolyzes in vivo to the compound of formula IV.

fungal infection = experiment: Antifungal activity in in vivo tests in mice; design: species or system mouse; conditions: for antifungal activity in in vivo tests in mice versus existing antifungal agents: versus itraconazole, fluconazole and azoles of US 5,039,676 and WO 93/09114
Experimental: as §1

Water solubility = type: physicochemical
Candida albicans = experiment: Mice with a systemic Candida albicans infection; type: in vivo, mouse; Candida albicans; conditions: 10 mg/kg
Aspergillus fumigatus = experiment: Aspergillus pulmonary infection model in mice; type: in vivo, mouse; Aspergillus fumigatus; conditions: 10 mg/kg
Experimental: as §1

[3] = Pharmacokinetic studies in human tissues and serum (metabolism); type: in vitro ADME
[4] = test system: Candida, Aspergillus and Cryptococcus; experiment: In vitro antifungal activity, comparison of geometric mean MICs; type: cell-based; conditions: comparison among II, III and IV
Experimental: as §1

[5] = read-out: G mean MICs (geometric mean MIC)

Structure (SMILES) | AUC (of formula IV), time zero to 24 hrs [1] | MIC (Aspergillus species) | MIC (Candida species; [5]) | MIC (Candida species; read-out: MIC Range) | MIC (Cryptococcus neoformans; [5]) | MIC (Cryptococcus neoformans; read-out: MIC Range) | site of hydrolysis in vivo [2] | antifungal activity in in vivo tests in mice versus existing antifungal agents (fungal infection) | other results
CC[C@@H]([C@H](C)OC(=O)CCCCOP(=O)(O)O)n1ncn(-c2ccc(N3CCN(c4ccc(OC[C@@H]5CO[C@@](Cn6cncn6)(c6ccc(F)cc6F)C5)cc4)CC3)cc2)c1=O [Formula V.2 NMG, reference compound] | 36.7 | – | – | – | – | – | – | – | –
CC[C@@H]([C@H](C)OC(=O)CCCO)n1ncn(-c2ccc(N3CCN(c4ccc(OC[C@@H]5CO[C@@](Cn6cncn6)(c6ccc(F)cc6F)C5)cc4)CC3)cc2)c1=O [Formula III, 2(S)-[4-{4-{4-{4-[[(R-Cis)-2-(2,4-difluorophenyl)-tetrahydro-2-(1H-1,2,4-triazol-1-ylmethyl)-4-furanyl]methoxy]phenyl]-1-piperazinyl]phenyl]-4,5-dihydro-5-oxo-1H-1,2,4-triazol-1-yl]-1-(S)-methylbutyl-4-hydroxy-butanoate] | – | 0.0313 to 2 µg/mL | 0.3 µg/mL | 0.0156 to 8 µg/mL | 0.09 µg/mL | 0.0156 to 0.5 µg/mL | primarily in the serum | unexpectedly better than that of existing antifungal agents | –
CC[C@@H]([C@H](C)O)n1ncn(-c2ccc(N3CCN(c4ccc(OC[C@@H]5CO[C@@](Cn6cncn6)(c6ccc(F)cc6F)C5)cc4)CC3)cc2)c1=O [Formula IV, reference compound] | – | 0.0156 to 1 µg/mL | 0.2 µg/mL | 0.0156 to 8 µg/mL | 0.04 µg/mL | 0.015 to 0.5 µg/mL | – | unexpectedly better than that of existing antifungal agents | –
CC[C@@H]([C@H](C)OC(=O)CCCOP(=O)(O)O)n1ncn(-c2ccc(N3CCN(c4ccc(OC[C@@H]5CO[C@@](Cn6cncn6)(c6ccc(F)cc6F)C5)cc4)CC3)cc2)c1=O [Formula II.2 NMG] | 79.1 | – | – | – | – | – | – | – | blood levels of the compound of formula IV ([1]; mice, intravenous, in water): superior blood levels; pharmacokinetic parameters of formula IV versus those from di-NMG salt of formula V ([1]; mice, intravenous, side-by-side comparison): unexpectedly superior; water solubility (Water solubility): water soluble
CC[C@@H]([C@H](C)OC(=O)CCCOP(=O)(O)O)n1ncn(-c2ccc(N3CCN(c4ccc(OC[C@@H]5CO[C@@](Cn6cncn6)(c6ccc(F)cc6F)C5)cc4)CC3)cc2)c1=O [Formula II, 5-[[2(S)-[4-[4-[4-[4-[[(R-cis)-5-(2,4-difluorophenyl)-tetrahydro-5-(1H-1,2,4-triazol-1-ylmethyl)-3-furanyl]methoxy]phenyl]-1-piperazinyl]phenyl]-4,5-dihydro-5-oxo-1H-1,2,4-triazol-1-yl]-1(S)-methylbutyl]oxy]-5-oxobutyl phosphate] | – | – | 7.5 µg/mL | – | 1.9 µg/mL | 0.125 to 32 µg/mL | primarily in the serum and in tissues (liver, lung and kidney) | – | survival at day 9 (Candida albicans): 100%; survival (Aspergillus fumigatus): 70%; metabolism [3]: metabolized to the compound of formula IV via the metabolite represented by formula III; in vivo activity in two mice models (fungal infection; systemic Candida albicans and pulmonary Aspergillus fumigatus): good in vivo activity; in vitro antifungal activity, comparison of geometric mean MICs [4]: much lower
